Test results: patent US11034742B2, “Peptides with antibiotic potential against Mycobacterium tuberculosis” (LINNANE PHARMA AB, priority 2017, dated 2021)
Values after ≈ are worked out from the molar mass of the structure shown. Positions of bridges follow the written chain, without caps; N, C: chain ends. Residues, ends and D or L forms follow the SMILES beside them.

Test system: M. tuberculosis

Row | SMILES | MIC (mg/L) | MIC (μM) [µM] | mean concentration inhibiting 99% of bacterial growth [µM]
1 | CC[C@H](C)[C@@H]1NC(=O)[C@H](CO)NC(=O)[C@H](CCCCN)NC(=O)[C@@H]2CSSC[C@@H](C(=O)N[C@@H](Cc3ccc(O)cc3)C(=O)O)NC(=O)[C@H](CCCCN)NC(=O)[C@@H]3CSSC[C@H](NC(=O)[C@H](CCC(N)=O)NC(=O)[C@H]([C@@H](C)CC)NC(=O)[C@H](CC(=O)O)NC(=O)[C@H](CC(=O)O)NC(=O)[C@H](CCC(=O)O)NC(=O)[C@H](CO)NC(=O)[C@H](Cc4c[nH]c5ccccc45)NC(=O)[C@@H]4CCCN4C(=O)CNC(=O)[C@H](CC(N)=O)NC(=O)[C@@H](NC(=O)CNC(=O)[C@H](Cc4ccccc4)NC(=O)CN)CSSC[C@H](NC(=O)[C@H](Cc4ccc(O)cc4)NC(=O)CNC(=O)CNC(=O)[C@H](CCCCN)NC(=O)[C@H](Cc4ccc(O)cc4)NC(=O)CNC(=O)[C@H](CCCCN)NC1=O)C(=O)N[C@@H](C)C(=O)N[C@@H](CCCNC(=N)N)C(=O)NCC(=O)NCC(=O)N[C@@H](Cc1ccccc1)C(=O)N[C@@H](C(C)C)C(=O)N3)C(=O)N[C@@H](Cc1c[nH]cn1)C(=O)N[C@@H](CC(N)=O)C(=O)N[C@@H](Cc1c[nH]cn1)C(=O)N2 [SEQ ID NO: 3] (H-GFGCNGPWSEDDIQCHNHCKSIKGYKGGYCARGGFVCKCY-OH; disulfide 4-30, 15-37, 19-39 (inferred); N-terminus and C-terminus assumed) | 27.5 (≈ 6.27 µM) | 6.8 (≈ 29.8 µg/mL) | 6.3
2 | CC[C@H](C)[C@@H]1NC(=O)[C@H](C)NC(=O)[C@@H]2CSSC[C@H](NC(=O)CNC(=O)[C@H](Cc3ccccc3)NC(=O)CN)C(=O)N[C@@H](CC(N)=O)C(=O)NCC(=O)N3CCC[C@H]3C(=O)N[C@@H](Cc3c[nH]c4ccccc34)C(=O)N[C@@H](CO)C(=O)N[C@@H](CCC(=O)O)C(=O)N[C@@H](CC(=O)O)C(=O)N[C@@H](CC(=O)O)C(=O)N[C@@H]([C@@H](C)CC)C(=O)N[C@@H](CCC(N)=O)C(=O)N[C@H]3CSSC[C@H](NC(=O)[C@H](C(C)C)NC(=O)[C@H](Cc4ccccc4)NC(=O)CNC(=O)CNC1=O)C(=O)N[C@@H](CCCCN)C(=O)N[C@H](C(=O)N[C@@H](Cc1ccc(O)cc1)C(=O)O)CSSC[C@H](NC(=O)[C@H](Cc1c[nH]cn1)NC(=O)[C@H](CC(N)=O)NC(=O)[C@H](Cc1c[nH]cn1)NC3=O)C(=O)N[C@@H](CCCCN)C(=O)N[C@@H](CO)C(=O)N[C@@H]([C@@H](C)CC)C(=O)N[C@@H](CCCCN)C(=O)NCC(=O)N[C@@H](Cc1ccc(O)cc1)C(=O)N[C@@H](CCCCN)C(=O)NCC(=O)NCC(=O)N[C@@H](Cc1ccc(O)cc1)C(=O)N2 [SEQ ID NO: 4] (H-GFGCNGPWSEDDIQCHNHCKSIKGYKGGYCAIGGFVCKCY-OH; disulfide 4-30, 15-37, 19-39 (inferred); N-terminus and C-terminus assumed) |  |  | 6.3
